One data set has as its system B16.F10 melanoma cells. As to the kind of experiment: Surface calreticulin expression (immunogenic cell death) by flow cytometry. It counts as cell-based, mouse (C57BL/6). As to conditions: 24 hours of treatment. Here is the method:
B16.F10 melanoma cells were plated at 1.5-2.0×10^5 cells per well in 24-well plates in RPMI-1640 medium containing standard supplements and 10% fetal bovine serum (FBS) and incubated overnight at 37° C., 5% CO2. Compounds solubilized in dimethyl sulfoxide (DMSO) were added at the indicated concentrations and incubated for a further 24 hours at 37° C., 5% CO2. Control wells were treated with similar dilutions of DMSO. Cells were trypsinized and washed with FACS buffer (2% FBS+0.1% NaN3 in PBS) and seeded at 1-2×10^5 per well in 96-well round-bottom plates. Cells were stained with rabbit anti-calreticulin polyclonal antibody (1:100, Abcam ab2907) in FACS buffer for 30 minutes at 4° C. Following two washes, cells were labeled with goat anti-rabbit Alexa Fluor 488 (1:500, Thermo Fisher A11070) in FACS buffer for 30 minutes at 4° C. Cells were washed twice and labeled with 7-aminoactinomyosin D in order to exclude non-viable cells. Samples were immediately run on a BD LSR Fortessa flow cytometer and the data analyzed using FlowJo software.
(§1) Differences in tumor growth curves were evaluated by linear mixed models for longitudinal analysis and Kaplan-Meier survival curves were evaluated by log rank test. Differences in calreticulin expression were determined by two-way ANOVA with Bonferroni post-test. All data were analyzed using Graphpad Prism (version 7) or SAS (version 9.4) software.
In general terms: A flow cytometer gives signals particle by particle.

The nature of data set [1]: Tolerability / maximum tolerated dosage. The note with it: in vivo. Here is the method:
TTI-7106 is used for these experiments near the maximum tolerated dosage (MTD) of 40 mg/kg. […] TTI-7106 is authenticated in batches based on the NMR spectroscopy and mass spectrometry. All experiments are carried out on equal groups of male and female mice.

The subject of another data set is B16.F10 tumors. As to the kind of experiment: In vivo tumor growth, survival and regression in the B16.F10 melanoma model with anti-PD-1 therapy. Further details: species or system C57BL/6J mice. How it is done: Groups of 8-week old C57BL/6J female mice were inoculated with 1×10^5 freshly cultured B16.F10 tumor cells subcutaneously in the left flank. Mice were monitored for the development of tumors and when palpable were randomized into groups. Mice received αPD-1 (clone RMP1-14; BioXCell) or control rat IgG (Sigma) at 200 μg/day intraperitoneally in a volume of 200 μl PBS twice per week for 3 weeks. Mice received daily TTI-4242 or TTI-3114 at 30 mg/kg/day or vehicle only for 5 consecutive days in a total volume of 100 μL. Tumors were measured with digital calipers and the tumor volume calculated as (length×width^2)/2. Mice were euthanized when the tumor volume exceeded 1500 mm^3, developed ascites or necrosis, or when mice became lethargic.
as §1

Broadly, the MTD is the largest dose that counted as tolerated. A high value points to better tolerability.

On to `COc1cc(/C=C/c2cc(O)c3c(c2)C[C@@H]2C(C)(C)[C@H](O)CC[C@@]2(C)O3)cc2c1ccn2C` [TTI-4242], for which the “concentration at which high levels of surface calreticulin expression are induced” value in the data set with B16.F10 melanoma cells is “below 2 nM”. Besides, the “induction of surface calreticulin” value in the data set on B16.F10 melanoma cells (flow cytometry) was “induced surface calreticulin”. In data set [1], the “maximum tolerated dosage (MTD)” value was “nearly identical MTD”. Moreover, the toxicity result in data set [1] (30 mg/kg) is on record as “low toxicity”. In addition, the “tumors / mice showing initial tumor regression” value in the data set on B16.F10 tumors (during the period of schweinfurthin administration) was 50%. Besides, the “tumor growth (rate / delay)” value in the data set on B16.F10 tumors (established s.c. B16.F10 tumors, schweinfurthin 30 mg/kg/day for 5 consecutive days, αPD-1 200 μg i.p. twice per week for 3 weeks) is listed as “neither αPD-1 alone (FIG. 2C) nor TTI-4242 alone (FIG. 2D) impacted tumor growth rate”.

The compound `COc1cc(/C=C/c2cc(O)c3c(c2)C[C@@H]2C(C)(C)[C@H](O)CC[C@@]2(C)O3)cc(O)c1/C=C/c1c(C)noc1C` [TTI-7106] returned a maximum tolerated dose (MTD) in data set [1] (both sexes, mouse) of 40 mg/kg.
